Literature values in patent publication US8470371B2, “Polymeric micellar clusters and their uses in formulating drugs” (priority 2006, dated 2013).

Legend:
[1] = drug: propofol; literature
[2] = comparator amphiphiles

## CC(C)c1cccc(C(C)C)c1O [Propofol]
other
  Log P: 4.1

## 2-hydroxypropyl-β-cyclodextrin
[1]
  Drug Concentration: 38700 µg/mL
  Moles drug encapsulated per mole of polymer: 0.75 [10]

## C[C@]12C=CC(=O)C=C1CC[C@@H]1[C@@H]2[C@@H](O)C[C@@]2(C)[C@H]1CC[C@]2(O)C(=O)CO [Prednisolone]
other
  Log P: 1.4

## polysorbate 20
[2]
  CMC: 53 µM
  HLB: 16.7
